Values quoted from earlier work, collected in patent publication US9289389B2, “Method for producing matrix-type pharmaceutical solid preparation” (OTSUKA PHARMACEUTICAL CO., LTD., priority 2007, dated 2016).

Conditions: water 20° C.

amount of water necessary to dissolve 1 g | Compound
1.2 g | OC[C@H]1O[C@H](O[C@H]2[C@H](O)[C@@H](O)C(O)O[C@@H]2CO)[C@H](O)[C@@H](O)[C@@H]1O (mixture of isomers) [maltose monohydrate]
1.8 g | OC[C@@H](O)[C@@H](O[C@@H]1O[C@H](CO)[C@H](O)[C@H](O)[C@H]1O)[C@H](O)[C@@H](O)CO [lactitol]
1.2 g | OC[C@H]1O[C@H](O[C@H]2O[C@H](CO)[C@@H](O)[C@H](O)[C@H]2O)[C@H](O)[C@@H](O)[C@@H]1O [trehalose dihydrate]
1.6 g | OC[C@@H](O)[C@H](O)[C@@H](O)CO [xylitol]

Same assay, conditions: water 25° C.

amount of water necessary to dissolve 1 g | Compound
3.3 g | OC[C@@H](O)[C@@H](O)CO [erythritol]
0.5 mL (g) | OC[C@@H](O)[C@@H](O)[C@H](O)[C@@H](O)CO [sorbitol]

Same assay, conditions: water temperature not stated

amount of water necessary to dissolve 1 g of sugar and/or sugar alcohol | Compound
0.3 g | O=C(CO)[C@@H](O)[C@H](O)[C@H](O)CO [fructose]
easily soluble | OC[C@@H](O)[C@@H](O[C@H]1O[C@H](CO)[C@@H](O)[C@H](O)[C@H]1O)[C@H](O)[C@@H](O)CO [maltitol]
0.5 g | OC[C@H]1O[C@@](CO)(O[C@H]2O[C@H](CO)[C@@H](O)[C@H](O)[C@H]2O)[C@@H](O)[C@@H]1O [sucrose]
